These results are taken from a melting point compilation (Tetko et al.; mined from patent text by program, amines drawn as free bases though some values may be those of a salt).

SMILES strings stand for the structures.

As a reminder, the melting point is the temperature of the solid-liquid transition. For the compound `N#Cc1ccc(Sc2cccc3cnccc23)c(Cl)c1`, the melting point was 126 to 128 °C.

In turn, `O=S(=O)(c1ccc(N2CCCCCC2)cc1)N1CC(O)CC1=S` (configuration not stated) displayed a melting point of 138 to 139 °C.

As for `CCCCOc1cc(-c2ccccc2)c(OCC(=O)O)c(-c2ccccc2)c1`, the melting point was in the range of 92 to 94 °C.

As to `CS(=O)(=O)c1ccc(-c2cc(=O)n(CC3CC3)nc2-c2ccc(F)cc2)cc1`, the melting point lay within 130 to 132 °C.

For the compound `CC1CN(c2nnc(N3CCOC(C)C3)c3cc(-c4ccccc4)ncc23)CCO1` (configuration not stated), the melting point lay in the range of 75 to 81 °C.

The compound `CNC(=O)Nc1ccc(Cc2cc(C)c(C(=O)c3ccc(Cl)cc3)n2C)nc1` registered a melting point of 234 to 236 °C.

For `COc1ccc2nc(-c3ccccc3)cc(CCNC(=O)C(F)(F)F)c2c1`, the melting point is 122 to 124 °C.

Compound `FC(F)(F)Oc1ccc(-c2ccc3[nH]c4c(ccc5cc[nH]c54)c3c2)cc1` displayed a melting point of over 250 °C.

`COc1ccc2c(Cc3c(Cl)cncc3Cl)nnc(Cl)c2c1` returned a melting point of 156 to 166 °C.

Regarding `CC(C)(C)OC(=O)N1CCC(Oc2c(F)cc3c(=O)c(C(=O)O)cn(C4CC4)c3c2F)C1` (configuration not stated), the melting point fell in the range of 158 to 160 °C.

For `O=C(O)c1[nH]c(-c2ccccc2)cc1-c1ccc(O)cc1`, the melting point was 192 to 193 °C.

As to `CCOc1ccc(-c2nc(CCC(=O)c3nccs3)cs2)cc1OCC`, the melting point fell in the range of 93.1 to 94.4 °C.

As for `COc1ccc(C(=O)Nc2c(C)c(C)c3c(c2C)C(c2ccc(C)cc2)C(C)(C)O3)cc1OC` (configuration not stated), the melting point was in the range of 169 to 171 °C.

The compound `COc1ccc(-c2cc(=O)c3ccc(OCCCBr)cc3o2)cc1OC` showed a melting point of 148 to 149 °C.

The compound `C=CCOc1ccc(OCCBr)cc1` yielded a melting point of 27 to 28 °C.

Take `CCCCCCC1=CC(O)(C(Br)Br)NC1=O` (configuration not stated): the melting point was in the range of 106 to 109 °C.

Regarding `Cc1oc(-c2ccccc2)nc1CCOc1ccc(Cn2cc(CC(=O)O)c(-c3ccccc3)n2)cn1`, the melting point was in the range of 148 to 149 °C.

Turning to `Cc1ccc(F)c(NC(=O)c2ccccc2CN2C(=O)C3(COc4cc5c(cc43)CCO5)c3ccccc32)c1` (configuration not stated), the melting point was in the range of 214 to 216 °C.

`Clc1ccc(C2=CCCC2)cn1` had a melting point of 59 to 60 °C.

As to `COc1ccc(-c2n[nH]c3c2sc2ccccc23)cc1`, the melting point was 185 to 187 °C.

`BrCOc1cccc(OCc2ccccc2)c1` showed a melting point of 70 to 71 °C.

As to `CCC1CCCCCc2c1oc(=O)c(C(c1ccccc1)C1CC1)c2O` (configuration not stated), the melting point fell in the range of 94 to 98 °C.

In the case of `Cc1cc(C(=O)N(C)C)ncc1C(c1c(F)ccc(F)c1F)S(=O)(=O)CCC(F)(F)F` (configuration not stated), the melting point was in the range of 203 to 204 °C.

As to `COc1cc(COc2cc(C(=O)O)n(-c3ccccc3)n2)ccc1OCc1nc(-c2ccccc2)oc1C`, the melting point was 192 to 193 °C.

Compound `CC(=O)c1c(-c2ccccc2)n(C)c2ccccc12` showed a melting point of 76 to 77 °C.

Turning to `CCC1C(=O)N(c2ccccc2)C(=S)N1c1ccc(Oc2ccccc2)cc1` (configuration not stated), the melting point was 158 to 159 °C.

The compound `Cc1oc(-c2ccco2)nc1COc1ccc(Cn2cc(CCC(=O)O)c(-c3ccccc3)n2)cc1` came in with a melting point of 152 to 153 °C.

In turn, `c1ccc(SCCCSc2nnnn2-c2ccccc2)cc1` gave a melting point of 57 to 59 °C.

`CCCCc1c2c(nc3c1CCCC3)CCCC2`: the melting point was 35 to 37 °C.

Take `O=c1cc(-c2ccc(CO)cc2)oc2ncccc12`: the melting point was 218 to 219 °C.

Regarding `CN(C)C(=O)N(C)c1nnc(SCc2ccccc2)s1`, the melting point lay within 48 to 51 °C.

Consider `CCOC(=O)CC1N(c2c(C)cccc2C)C(=N)C(C)N1c1c(C)cccc1C` (configuration not stated), for which the melting point lay within 116 to 119 °C.

Compound `COc1ccc(-c2ccc3c(c2)C=C(C(=O)Nc2ccc(CN(C)C4CCC5(CC4)OCCO5)cc2)CCS3)cc1` showed a melting point of 198 to 201 °C.

The compound `CCOC(=O)c1cn(C2CC2)c2nc(N3CCC(NCC(C)=O)C3)c(F)cc2c1=O` (configuration not stated) gave a melting point of 203 to 204 °C.

Compound `c1csc(-c2cnc(COc3ccc(CCCCn4ccnc4)cc3)o2)c1` gave a melting point of 136 to 138 °C.

Consider `O=C1COCC2=C1C(c1ccc(F)c(I)c1)C1=C(CCS1(=O)=O)N2` (configuration not stated), for which the melting point was over 260 °C.

For the compound `Cc1nc2cc3c4c(cccc4c2[nH]1)C(=O)N(O)C3=O`, the melting point is over 330 °C.

With `CNC(=O)C1(Cl)CC1(Cl)Cl` (configuration not stated), the melting point lay in the range of 71 to 72 °C.

`NCC1Cc2cc(-c3ccc(Cl)cc3)cc(F)c2O1` (configuration not stated): the melting point was over 250 °C.

Take `CCCC(=O)Nc1n[nH]c2cc(-c3ccc(O)cc3)c(-c3ccccc3)cc12`: the melting point was determined as 220 °C.

`Cc1cc2c(S(C)(=O)=O)nc(OCC(F)(F)F)nc2s1` came in with a melting point of 138 to 140 °C.

`COc1cccc(-c2nc3c4ccccc4ccn3n2)c1` came in with a melting point of 159 to 160 °C.

`CS(=O)(=O)c1ccc(-c2oc(C(=O)O)cc(=O)c2Oc2ccc(Cl)cc2)cc1`: the melting point was 263 °C.

In the case of `CC(C)(C)CNc1nc(-c2[nH]c(C(C)(C)C)nc2-c2ccccc2)ccc1[N+](=O)[O-]`, the melting point lay in the range of 224 to 226 °C.

Regarding `COC(=O)c1cc(CCNC(=O)C(F)(F)F)ccc1OC`, the melting point lay in the range of 61 to 63 °C.

In turn, `O=C(c1ccc(F)cc1)c1ccnc(Cl)c1` showed a melting point of 60 to 63 °C.

In turn, `COC(=O)c1cc(S(=O)(=O)c2ccc(C)cc2)cc(OC)c1OC` yielded a melting point of 114 °C.

`COc1cccc(NC(=O)c2ccn3c2CSC3c2cccnc2)n1` (configuration not stated) displayed a melting point of 154 °C.

Regarding `CC(C)OC(=O)OCOC(=O)[C@H]1[C@@H]2CC[C@@](N)(C(=O)O)[C@@H]21`, the melting point lay in the range of 196 to 197 °C.

Compound `COc1cccc([C@H]2O[C@H](CC(=O)NCc3ccoc3C(=O)O)C(=O)N(CC(C)(C)CO)c3ccc(Cl)cc32)c1OC` registered a melting point of 125 to 128 °C.

In turn, `NC(=O)N(O)Cc1ccsc1` came in with a melting point of 129 to 131 °C.

Turning to `CCOC(=O)Cc1sc(Sc2ncccc2C(=O)OCC)nc1C`, the melting point is 181 to 183 °C.

`NC(=O)c1nnn(Cc2ccc(Cl)c(C(=O)c3ccc(Cl)cc3)c2)c1N`: the melting point lay in the range of 189 to 192 °C.

`O=c1c(Oc2ccc(-c3ccncc3)cc2)c(-n2ccnc2)cnn1-c1ccc(Cl)cc1` came in with a melting point of 188 °C.

`Cc1ccccc1NC(=O)NCC1(c2ccccc2)CCCCC1` returned a melting point of 171 to 174 °C.

In the case of `CC(CCC(F)C(C)(C)O)C1CCC2C3CC=C4CC(O)CC(O)C4(C)C3CCC12C` (configuration not stated), the melting point lay within 156 to 158 °C.

Regarding `O=C(C1=Cc2ccccc2Oc2ccccc21)N1CCCCC1`, the melting point was 127 to 128 °C.

The compound `Oc1ccc2c(Cl)cc(-c3ccccc3)nc2c1` came in with a melting point of 190 to 192 °C.

The compound `CCNC(=O)Cn1nc(Nc2ccc3c(c2)OC(F)(F)O3)nc1-c1cc(C)nc(C)c1` yielded a melting point of 242 °C.

The compound `CC(=O)c1cn(-c2c(Cl)cc(C(F)(F)F)cc2Cl)nc1C(F)(F)F` came in with a melting point of 134 °C.

Turning to `CCOCCOC(=O)C1=C(C)NC(COC(N)=O)=C(C(=O)OCC)C1c1cccc([N+](=O)[O-])c1` (configuration not stated), the melting point is 135 to 138 °C.

Turning to `COC(=O)c1nc(N(C)C)ccc1Oc1nc(OC)cc(OC)n1`, the melting point lay within 125 to 127 °C.
